According to US10906904B2, “ADO-resistant cysteamine analogs and uses thereof” (HORIZON ORPHAN LLC, priority 2015, dated 2021):
Read-outs that look alike come from different tables or passages of the source.

What was measured:
Cystine reactivity assay = conditions: 30° C., percentage of 3 mM cysteamine
Experimental: Cystine reactivity was assessed by incubating 3 mM test compound with 100 nM BODIPY® FL L-Cystine (Life Tech.) at 30° C., pH 7.4 in phosphate buffer. […] Compound cystine reactivity was expressed as a percentage of that of 3 mM cysteamine.
Under resting conditions, the inherent fluorescence of BODIPY® FL L-cystine was very low due to the spatial proximity of the two BODIPY molecules causing quenching. Under chemical reaction (disruption of the S—S bond), the spatial distance was increased, the quenching lost, and measured fluorescence increased. Time (minutes) vs. fluorescence (relative fluorescence units—RFU) was plotted and linear regression analysis was performed to generate a slope value corresponding to the reaction rate in RFU/min and an R2 value.

[1] = tested on: cystinotic human fibroblasts; assay: Cystine depletion assay; assay type: cell-based; conditions: for Emax: Homo sapiens, Fibroblast, 1 h; for cystine depletion levels (in words): compared to cysteamine; for Cystine depletion: compound at 50 μM or 100 μM, Tables 1-3
Experimental: The ability of test compounds to deplete cystine from cystinotic human fibroblasts (Coriell) was determined by incubating compounds with cells for 60 min at 37° C., 95% (v/v) air/5% (v/v) CO2 in Minimal Essential Media Eagle. Treated cell samples were subsequently harvested, then homogenized to ensure plasma and lysosomal membrane disruption. Protein was removed by acid precipitation and cystine in the supernatant measured using LC-MS/MS and HILIC chromatography. Protein levels were determined and cystine levels reported as nM per mg/ml protein. Cystine levels after test compound treatment were expressed as a percentage of that of untreated control cells.
Compounds were assayed at a concentration of 50 μM or 100 μM according to the general methods described above.
Cystine depletion levels for the compounds are expressed in Table 4 as a percent relative to the cystine depletion achieved by cysteamine (c.f. cysteamine 100%) at a similar concentration.
Cystine depletion levels for each of the compounds in Table 5 are expressed as a percent relative to the cystine depletion achieved by cysteamine (c.f. cysteamine 100%) at a similar concentration.

St-HdhQ^111/111 cells = assay: Glutamate-induced neuronal excitotoxicity assay; assay type: cell-based; conditions: STHdhQ111, 6 mM L-glutamate 24 hours, % of effect of 100 μM cysteamine; for viability at 10 µM: read-out: HdhQ^111/111 cell % survival (mean ± STD) Test Conc. 10 μM; for viability at 100 µM: read-out: HdhQ^111/111 cell % survival (mean ± STD) Test Conc. 100 μM
Experimental: The ability of test compounds to inhibit glutamate-induced excitotoxicity (neuroprotection) in St-HdhQ^111/111 cells was determined by incubating compounds with cells for 60 min at 33° C., 95% (v:v) air/5% (v:v) CO2 in Dulbecco's Modified Eagle Media. Following this, excitotoxicity was induced by the addition of 6 mM L-glutamate for 24 hours. Cell viability was assessed by measuring ATP levels using a luminescent-based CellTitre Glo assay (Promega). Compound neuroprotection (% cell survival) was expressed as a % of the effect recorded with 100 μM cysteamine (denoted as 100% cell survival).

human recombinant ADO = target: T1, human recombinant ADO (Homo sapiens, UniProt Q96SZ5); assay type: in vitro ADME; conditions: for ADO Metabolism Assay (%) Mean Value: human, 15 mM
T1 sequence (Q96SZ5 1-270): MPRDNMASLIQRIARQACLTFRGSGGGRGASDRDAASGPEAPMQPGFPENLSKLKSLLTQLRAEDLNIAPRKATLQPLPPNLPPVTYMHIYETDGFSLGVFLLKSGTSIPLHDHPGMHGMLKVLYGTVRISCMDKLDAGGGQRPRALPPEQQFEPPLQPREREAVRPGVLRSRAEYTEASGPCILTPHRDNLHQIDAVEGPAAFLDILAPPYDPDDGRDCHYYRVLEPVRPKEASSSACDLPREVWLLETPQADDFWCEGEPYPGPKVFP
Experimental: The rate of ADO metabolism was determined by incubating 15 mM test compound with 60 μg/ml human recombinant ADO and 20 nM MitoXpress® O2-sensitive fluorescent probe (Luxcel) at 37° C. in assay buffer/salt in a sealed assay chamber. The initial rate of fluorescence (excitation λ380 nm and emission λ650 nm) increase was used to measure ADO-dependent oxygen depletion activity. The ability of ADO to metabolize compounds and concomitantly consume oxygen was expressed relative to that of 15 mM cysteamine.

[2] = Table 4, relative to cystine depletion by cysteamine (100%) at a similar concentration, read-out: Cystine Depletion (%)
[3] = Table 5, relative to cystine depletion by cysteamine (100%) at a similar concentration, read-out: Cystine Depletion (%) Mean Value

In the case of `NC1CCC(S)C1` (stereo not drawn) [Compound 42691], the “Cystine Reactivity Assay (30° C.) (%) Mean Value” (Cystine reactivity assay; Table 4) is reported as 50-90%.

With `CN1CCCC(SSC2CCCN(C)C2)C1` (stereo not drawn) [Compound 42152] the Emax [1, 2] was 126%.

With `SC[C@@H]1CCCCN1` [Compound 145592] the “Cystine Reactivity Assay (30° C.) (%) Mean Value” (Cystine reactivity assay; Table 5) was greater than 90%, the viability at 10 µM (St-HdhQ^111/111 cells) was 17 ± 10% and the viability at 100 µM (St-HdhQ^111/111 cells) was 88 ± 8%. It also gave an Emax [1, 3] of 156%.

In the case of `Sc1ccncc1` [Compound 42338], the “Cystine Reactivity Assay (30° C.) (%) Mean Value” (Cystine reactivity assay; Table 4) is reported as less than 50%.

Compound `N[C@H]1C[C@H](SS[C@H]2C[C@H](N)C2)C1` [Compound 151271] has an Emax [1, 3] of 27%.

In the case of `CCN1CCC(S)CC1` [Compound 42391], the “Cystine Reactivity Assay (30° C.) (%) Mean Value” (Cystine reactivity assay; Table 4) is reported as greater than 90% and the Emax [1, 2] is reported as 60%.

`CSC1(C)CCNCC1` [Compound 145691] showed an Emax [1, 3] of 0%.

In the case of `N[C@H]1C[C@@H](SS[C@H]2C[C@@H](N)C2)C1` [Compound 151270], the Emax [1, 3] is reported as 3%.

In the case of `C1CNC[C@H](SS[C@@H]2CCCNC2)C1` [Compound 145609], the “ADO Metabolism Assay (%) Mean Value” (human recombinant ADO) is reported as less than 25% and the Emax [1, 3] is reported as 121%.

For `N[C@H]1CCCC[C@@H]1S` [Compound 42693], the “Cystine Reactivity Assay (30° C.) (%) Mean Value” (Cystine reactivity assay; Table 4) was greater than 90%, the viability at 10 µM (St-HdhQ^111/111 cells) was 80 ± 10% and the viability at 100 µM (St-HdhQ^111/111 cells) was 77 ± 9%. For the same compound, the Emax [1, 2] was 110%.

With `N[C@H]1CC[C@H](S)CC1` [Compound 42492] the “Cystine Reactivity Assay (30° C.) (%) Mean Value” (Cystine reactivity assay; Table 4) was less than 50%.

In the case of `CN1CC[C@H](S)C1`, the viability at 10 µM (St-HdhQ^111/111 cells) is reported as 11 ± 11% and the viability at 100 µM (St-HdhQ^111/111 cells) is reported as 95 ± 6%.

With `N[C@@H]1CCCC[C@H]1S` [Compound 42692] the “Cystine Reactivity Assay (30° C.) (%) Mean Value” (Cystine reactivity assay; Table 4) was greater than 90%, the viability at 10 µM (St-HdhQ^111/111 cells) was 82 ± 4% and the viability at 100 µM (St-HdhQ^111/111 cells) was 71 ± 5%. The Emax [1, 2] was 100%.

Compound `CN1CC[C@@H](S)C1` has a viability at 10 µM (St-HdhQ^111/111 cells) of 13 ± 13% and a viability at 100 µM (St-HdhQ^111/111 cells) of 93 ± 9%.

For `Nc1nc2[nH]cnc2c(=S)[nH]1` [Compound 1141], the “Cystine Reactivity Assay (30° C.) (%) Mean Value” (Cystine reactivity assay; Table 5) was less than 50% and the Emax [1, 3] was 0%.

In the case of `CC1(S)CCNC1` (stereo not drawn) [Compound 150731], the “Cystine Reactivity Assay (30° C.) (%) Mean Value” (Cystine reactivity assay; Table 5) is reported as greater than 90% and the Emax [1, 3] is reported as 58%.

For `FC1(F)CN[C@@H](CS)C1` [Compound 149607], the “Cystine Reactivity Assay (30° C.) (%) Mean Value” (Cystine reactivity assay; Table 5) was greater than 90%, the viability at 10 µM (St-HdhQ^111/111 cells) was 32 ± 9% and the viability at 100 µM (St-HdhQ^111/111 cells) was 98 ± 12%. It also gave an Emax [1, 3] of 17%.

With `C[C@H](N)CS` (single isomer, unassigned) [Compound 42-98] the “Cystine Depletion (%)” value ([1]; Table 4, relative to cystine depletion by cysteamine (100%) at a similar concentration) was 70%.

In the case of `Oc1ccc2ccccc2c1SSc1c(O)ccc2ccccc12` [Compound 2415], the Emax [1, 3] is reported as 14%.

In the case of `SC1CNC1` [Compound 2a], the “metabolism by ADO compared to cysteamine (in words)” value (human recombinant ADO) is reported as “significantly reduced metabolism by ADO compared to cysteamine”, the “cystine depletion levels (in words)” value [1] is reported as “slightly decreased” and the Cystine depletion [1] is reported as 82%.

For `CN1C2CCC1CC(SSC1CC3CCC(C1)N3C)C2` (stereo not drawn) [Compound 42344], the Emax [1, 2] was 38%.

In the case of `CC(C)(N)CS` [Compound 3b], the “cystine depletion levels (in words)” value [1] is reported as “similar” and the Cystine depletion [1] is reported as 97%.

Work on `C[C@H]1C[C@@H](S)CCN1` [Compound 42618] yielded an Emax [1, 2] of 49%.

Work on `CC1(C)CNCCC1S` (stereo not drawn) [Compound 42609] yielded an Emax [1, 2] of 17%.

For `CNCCS` [Compound 1a], the “metabolism by ADO compared to cysteamine (in words)” value (human recombinant ADO) was “significantly reduced metabolism by ADO compared to cysteamine”, the “cystine depletion levels (in words)” value [1] was “slightly decreased cystine depletion levels” and the Cystine depletion [1] was 85%. For the same compound, the “Cystine depletion ( ) = disulfide efficacy” value ([1]; disulfide of the compound, 50 μM or 100 μM) was “(94%)”.

Compound `F[C@@H]1CNCC[C@H]1S` has a viability at 10 µM (St-HdhQ^111/111 cells) of 3 ± 7% and a viability at 100 µM (St-HdhQ^111/111 cells) of 86 ± 10%.

`C[C@H]1CCNC[C@@H]1S` [Compound 42612] showed an Emax [1, 2] of 98%.

With `NC1(CS)CC1` [Compound 41448] the “ADO Metabolism Assay (%) Mean Value” (human recombinant ADO) was 25-75% and the Emax [1, 2] was 55%.
